Reference: patent publication US20250262272A1, “PEPTIDES AND METHODS OF USE THEREOF IN TREATING SKIN DISEASES” (Park Strategic Ventures LLC, priority 2022, published 2025)

Columns and labels:
[1] = test system: imiquimod induced mouse model of psoriasis; experiment: imiquimod induced mouse model of psoriasis; assay type: in vivo, C57BL/6 mice
Text: FIG. 2A illustrates the methodological details of an imiquimod induced mouse model of psoriasis. In particular, shown is a timeline of the psoriasis induction model and application of the MARCKS inhibitor (BIO 11006) and the three different outcomes analyzed.
FIG. 2B illustrates the skin thickness in micrometers of mice administered imiquimod daily for seven (7) days in order to mimic psoriasis in one (1) test group as compared to the skin thickness in micrometers from either of two (2) control groups. The test group consisted of mice administered imiquimod daily plus intraperitoneal (ip) injection of BIO 11006 as a daily single dose on each of days 1-7. The two (2) control groups consisted of (1) mice administered vaseline and (2) mice administered imiquimod daily and phosphate buffered saline (PBS). N=6-7 mice, mean+SD, 1-way ANOVA, Tukey test.
FIG. 3 depicts images of mice the skin on the nape of the neck for the test group and two control groups described for FIG. 2B and Example 1. #1, 2 and 3 represent same treatments.
FIG. 4 illustrates the percent dryness, flakiness, skin bumps and redness the skin on the nape of the neck for the test group and two control groups described for FIG. 2B and Example 1. At a scale of 0-5, 0 indicated no visible signs or symptoms; 1-3 indicated moderate forms of the respective sign or symptom; 4-5 indicated major forms of the respective sign or symptom.
Since skin inflammation and itch are common problems, two different mouse models with inflammation and itch were developed and used for rigorous in vivo testing of the inhibition of skin inflammation and itch in response to administration of the MARCKS inhibitor BIO11006 (Ac-GAQFSKTAAK-OH; SEQ ID NO: 106). The first model is a mouse model of AD induced using MC903. The second model is a mouse model of psoriasis induced using imiquimod. Imiquimod-induced disease progression of skin inflammation and itch resemble the MC903 mouse model. As such, the same relative timeline and drug delivery was used for the psoriasis mouse model as described for MC903 mouse model with exception that the terminal day was day 7 (D7 in FIG. 2A). As outlined in FIGS. 1A and 2A, these mouse models were used to conduct a comprehensive examination of how BIO11006 spatially and kinetically changed the skin following the onset of AD-like or psoriasis-like disease symptoms by measuring skin thickness, histological, molecular analysis of inflammatory markers, and itch behavior.
Given that the significant skin inflammation was expected to start at day 5, BIO11006 (100 μM) was administered by intraperitoneal injection in three (3) different settings as described in FIG. 2A (i.e., daily single doses from Day 1 through Day 7, Days 6 and 7 or just Day 7). The skin thickness was measured at Day 0, 1, 3, 5, and 7. Additionally, the itch behavior was recorded at Day 0 and Day 7.

[2] = test system: MC903 induced mouse model of atopic dermatitis (AD); experiment: MC903 induced mouse model of atopic dermatitis (AD); assay type: in vivo, C57BL/6 mice; conditions: BIO11006 100 μM ip; day 10 only, days 9-10, days 4-10 or days 1-10
Text: FIG. 1A illustrates the methodological details of an MC903 induced mouse model of atopic dermatitis (AD). In particular, shown is a timeline of the AD induction model and application of the MARCKS inhibitor (BIO 11006) and the three different outcomes analyzed.
FIG. 1B illustrates the skin thickness in micrometers of mice administered MC903 daily for ten (10) days in order to mimic atopic dermatitis (AD) in each of four (4) test groups as compared to the skin thickness in micrometers of mice from either of two (2) control groups. The four (4) test groups consisted of mice administered MC903 daily plus intraperitoneal (ip) injection of BIO 11006 as either (1) a single dose on day 10, (2) a single dose on each of days 9 and 10, (3) a single dose on each of days 4-10, and (4) a daily single dose on each of days 1-10. The two (2) control groups consisted of (1) mice administered the vehicle only and (2) mice administered MC903 daily and vehicle only. […]
Given that the significant skin inflammation was expected to start at day 5, BIO11006 (100 μM) was administered by intraperitoneal injection in four (4) different settings as described in FIG. 1A (i.e., daily single doses from Day 1 through Day 10, Day 4 through Day 10, Days 9 and 10 or just Day 10). The skin thickness was measured at Day 0, 1, 3, 5, 7 and 10. Additionally, the itch behavior was recorded at Day 0 and Day 10.

[3] = BIO11006 100 μM ip daily, days 1-7, nape of the neck, scale 0-5 (FIG. 4)

## Ac-GAQFSKTAAK-OH [BIO 11006]
[1]; BIO11006 100 μM ip daily, days 1-7 (FIG. 3)
  visible appearance of the skin on the nape of the neck: visible protection/improvement
[1]; [3]
  skin bumps: significant decreases
  skin dryness: significant decreases
  skin flakiness: significant decreases
  skin redness: significant decreases
[1]; BIO11006 100 μM ip, daily single dose days 1-7, end of the study, vs imiquimod + PBS (FIG. 2B)
  skin thickness: significant decrease
[2]
  results in the mouse model of AD (skin thickness, FIG. 1B): less conclusive
